Results: patent US12343326B2, “Psychoactive medicines and their use for treating psychiatric and neurological conditions and disorders” (Transcend Therapeutics, Inc., priority 2021, dated 2025)
Read-outs that look alike come from different tables or passages of the source.

Columns and labels:
Assay in all cases: β-arrestin based GPCR screen (PathHunter / GPCRmax), agonist mode
Format in all cases: cell-based
Set-up in all cases: host or cells: PathHunter cell lines
168 GPCRs [1] = target: 168 GPCRs (Homo sapiens, UniProt P41968); settings: MC3R
Method: (§1) For agonist determination, cells were incubated with sample to induce response. […] Vehicle concentration was 1%.

168 GPCRs [2] = target: 168 GPCRs (Homo sapiens, UniProt P20309); settings: CHRM3, Agonist
Method: as §1

168 GPCRs [3] = target: 168 GPCRs (Homo sapiens, UniProt P41586); settings: ADCYAP1R1, Agonist
Method: as §1

168 GPCRs [4] = target: 168 GPCRs (Homo sapiens, UniProt Q9P296); settings: C5L2, Agonist
Method: as §1

168 GPCRs [5] = target: 168 GPCRs (Homo sapiens, UniProt Q9H244)
Method: as §1

168 GPCRs [6] = target: 168 GPCRs (Homo sapiens, UniProt P51679); settings: CCR4, Agonist
Method: as §1

168 GPCRs [7] = target: 168 GPCRs (Homo sapiens, UniProt P21728)
Method: as §1

168 GPCRs [8] = target: 168 GPCRs (Homo sapiens, UniProt P29371)
Method: as §1

168 GPCRs [9] = target: 168 GPCRs (Homo sapiens, UniProt P30518); settings: AVPR2, Agonist
Method: as §1

168 GPCRs [10] = target: 168 GPCRs (Homo sapiens, UniProt P32245); settings: MC4R
Method: as §1

168 GPCRs [11] = target: 168 GPCRs (Homo sapiens, UniProt Q13324)
Method: as §1

168 GPCRs [12] = target: 168 GPCRs (Homo sapiens, UniProt P25024)
Method: as §1

168 GPCRs [13] = target: 168 GPCRs (Homo sapiens, UniProt P30872)
Method: as §1

168 GPCRs [14] = target: 168 GPCRs (Homo sapiens, UniProt P61073)
Method: as §1

168 GPCRs [15] = target: 168 GPCRs (Homo sapiens, UniProt P41231)
Method: as §1

168 GPCRs [16] = target: 168 GPCRs (Homo sapiens, UniProt P28566); settings: HTR1E
Method: as §1

168 GPCRs [17] = target: 168 GPCRs (Homo sapiens, UniProt Q99705)
Method: as §1

168 GPCRs [18] = target: 168 GPCRs (Homo sapiens, UniProt Q16602); settings: Agonist
Method: as §1

168 GPCRs [19] = target: 168 GPCRs (Homo sapiens, UniProt P08913); settings: ADRA2A, Agonist
Method: as §1

168 GPCRs [20] = target: 168 GPCRs (Homo sapiens, UniProt P30550); settings: GRPR
Method: as §1

168 GPCRs [21] = target: 168 GPCRs (Homo sapiens, UniProt P18089); settings: ADRA2B, Agonist
Method: as §1

168 GPCRs [22] = target: 168 GPCRs (Homo sapiens, UniProt P11229); settings: CHRM1, Agonist
Method: as §1

Chain of 168 GPCRs (Homo sapiens, UniProt Q16602) (Q16602 23-461): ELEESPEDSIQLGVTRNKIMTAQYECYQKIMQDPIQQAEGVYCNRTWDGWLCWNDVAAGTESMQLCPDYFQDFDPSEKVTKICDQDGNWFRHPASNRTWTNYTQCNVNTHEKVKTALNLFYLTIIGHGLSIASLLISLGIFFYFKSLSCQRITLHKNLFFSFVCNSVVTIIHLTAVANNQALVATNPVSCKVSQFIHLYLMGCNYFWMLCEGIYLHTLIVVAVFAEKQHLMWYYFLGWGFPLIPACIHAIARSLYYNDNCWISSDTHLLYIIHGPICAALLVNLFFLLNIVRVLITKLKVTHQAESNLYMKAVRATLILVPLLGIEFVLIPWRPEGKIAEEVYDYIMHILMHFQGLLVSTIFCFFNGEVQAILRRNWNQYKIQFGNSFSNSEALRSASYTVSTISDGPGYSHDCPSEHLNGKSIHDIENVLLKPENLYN
Chain of 168 GPCRs (Homo sapiens, UniProt P11229) (P11229 whole entry): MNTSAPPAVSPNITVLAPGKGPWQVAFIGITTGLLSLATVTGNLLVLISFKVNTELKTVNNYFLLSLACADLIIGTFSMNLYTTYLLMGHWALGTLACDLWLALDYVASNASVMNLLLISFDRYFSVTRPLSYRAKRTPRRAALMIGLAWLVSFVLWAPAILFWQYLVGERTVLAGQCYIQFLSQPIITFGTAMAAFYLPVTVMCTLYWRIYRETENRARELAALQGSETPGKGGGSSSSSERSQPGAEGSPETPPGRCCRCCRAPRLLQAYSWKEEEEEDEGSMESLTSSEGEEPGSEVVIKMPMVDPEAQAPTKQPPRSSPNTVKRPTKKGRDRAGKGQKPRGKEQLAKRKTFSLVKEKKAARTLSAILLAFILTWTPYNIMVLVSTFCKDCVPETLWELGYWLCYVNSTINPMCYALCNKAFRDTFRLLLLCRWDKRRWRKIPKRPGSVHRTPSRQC
Chain of 168 GPCRs (Homo sapiens, UniProt P51679) (P51679 whole entry): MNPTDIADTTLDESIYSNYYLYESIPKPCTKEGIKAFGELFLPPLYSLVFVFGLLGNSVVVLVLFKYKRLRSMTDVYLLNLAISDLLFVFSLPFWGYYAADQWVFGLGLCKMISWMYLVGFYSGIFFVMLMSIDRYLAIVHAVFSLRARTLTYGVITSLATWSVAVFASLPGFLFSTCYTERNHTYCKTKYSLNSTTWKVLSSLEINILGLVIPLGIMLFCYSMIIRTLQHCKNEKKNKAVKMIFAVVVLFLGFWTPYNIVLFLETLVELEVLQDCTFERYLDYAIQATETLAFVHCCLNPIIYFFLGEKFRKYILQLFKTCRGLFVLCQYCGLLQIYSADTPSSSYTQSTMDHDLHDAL
Chain of 168 GPCRs (Homo sapiens, UniProt P32245) (P32245 whole entry): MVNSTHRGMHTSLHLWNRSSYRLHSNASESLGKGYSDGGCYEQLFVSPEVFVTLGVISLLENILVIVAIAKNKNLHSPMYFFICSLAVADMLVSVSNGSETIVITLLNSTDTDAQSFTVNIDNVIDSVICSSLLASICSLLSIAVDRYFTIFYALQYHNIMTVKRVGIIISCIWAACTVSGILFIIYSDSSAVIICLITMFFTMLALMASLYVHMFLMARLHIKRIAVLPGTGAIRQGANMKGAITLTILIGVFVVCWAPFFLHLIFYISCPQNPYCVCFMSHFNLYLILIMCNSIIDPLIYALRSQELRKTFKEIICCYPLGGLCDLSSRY
Chain of 168 GPCRs (Homo sapiens, UniProt P21728) (P21728 whole entry): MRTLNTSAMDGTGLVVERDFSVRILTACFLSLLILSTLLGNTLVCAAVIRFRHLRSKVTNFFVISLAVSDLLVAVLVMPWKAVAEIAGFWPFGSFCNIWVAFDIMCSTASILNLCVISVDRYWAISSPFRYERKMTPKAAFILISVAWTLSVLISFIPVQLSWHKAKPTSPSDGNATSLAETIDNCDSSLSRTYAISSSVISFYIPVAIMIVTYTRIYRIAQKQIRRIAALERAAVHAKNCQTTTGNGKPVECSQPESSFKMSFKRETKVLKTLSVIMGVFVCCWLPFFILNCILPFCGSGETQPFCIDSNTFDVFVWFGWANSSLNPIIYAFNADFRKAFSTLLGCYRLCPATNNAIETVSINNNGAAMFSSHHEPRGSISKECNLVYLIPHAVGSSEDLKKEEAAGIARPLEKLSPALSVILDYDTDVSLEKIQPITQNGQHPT
Chain of 168 GPCRs (Homo sapiens, UniProt P25024) (P25024 whole entry): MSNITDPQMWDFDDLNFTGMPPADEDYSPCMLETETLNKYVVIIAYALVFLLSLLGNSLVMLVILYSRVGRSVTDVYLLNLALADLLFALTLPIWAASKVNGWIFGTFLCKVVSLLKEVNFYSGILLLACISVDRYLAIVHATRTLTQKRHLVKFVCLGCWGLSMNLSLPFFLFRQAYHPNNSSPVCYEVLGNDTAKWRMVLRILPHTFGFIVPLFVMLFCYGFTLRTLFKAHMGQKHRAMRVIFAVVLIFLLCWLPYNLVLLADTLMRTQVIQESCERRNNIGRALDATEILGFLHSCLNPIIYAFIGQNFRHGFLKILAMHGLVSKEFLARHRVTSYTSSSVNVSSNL
Chain of 168 GPCRs (Homo sapiens, UniProt P41231) (P41231 whole entry): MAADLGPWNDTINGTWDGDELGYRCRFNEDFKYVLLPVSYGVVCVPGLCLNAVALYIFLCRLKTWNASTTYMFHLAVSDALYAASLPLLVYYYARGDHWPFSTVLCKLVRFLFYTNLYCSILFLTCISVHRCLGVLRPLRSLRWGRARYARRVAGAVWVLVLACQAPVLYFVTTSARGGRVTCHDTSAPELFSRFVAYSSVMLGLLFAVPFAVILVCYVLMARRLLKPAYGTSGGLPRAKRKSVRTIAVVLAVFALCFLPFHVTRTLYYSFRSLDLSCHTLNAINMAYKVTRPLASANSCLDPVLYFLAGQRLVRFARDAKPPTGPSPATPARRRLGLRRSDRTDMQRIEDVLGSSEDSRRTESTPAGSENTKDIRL
Chain of 168 GPCRs (Homo sapiens, UniProt P41586) (P41586 21-468): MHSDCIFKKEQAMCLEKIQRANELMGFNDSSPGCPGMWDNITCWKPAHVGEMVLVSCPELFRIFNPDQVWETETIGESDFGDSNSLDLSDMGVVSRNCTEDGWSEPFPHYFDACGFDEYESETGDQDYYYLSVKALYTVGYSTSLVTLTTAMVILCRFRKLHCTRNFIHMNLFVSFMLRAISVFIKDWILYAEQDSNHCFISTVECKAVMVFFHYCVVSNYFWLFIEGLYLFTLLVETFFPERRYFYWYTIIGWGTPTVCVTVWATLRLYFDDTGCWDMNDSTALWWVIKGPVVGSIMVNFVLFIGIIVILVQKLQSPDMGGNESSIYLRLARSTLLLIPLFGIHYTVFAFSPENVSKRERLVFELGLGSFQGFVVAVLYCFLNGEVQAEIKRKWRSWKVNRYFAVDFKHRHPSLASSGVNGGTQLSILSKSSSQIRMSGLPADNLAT
Chain of 168 GPCRs (Homo sapiens, UniProt Q99705) (Q99705 whole entry): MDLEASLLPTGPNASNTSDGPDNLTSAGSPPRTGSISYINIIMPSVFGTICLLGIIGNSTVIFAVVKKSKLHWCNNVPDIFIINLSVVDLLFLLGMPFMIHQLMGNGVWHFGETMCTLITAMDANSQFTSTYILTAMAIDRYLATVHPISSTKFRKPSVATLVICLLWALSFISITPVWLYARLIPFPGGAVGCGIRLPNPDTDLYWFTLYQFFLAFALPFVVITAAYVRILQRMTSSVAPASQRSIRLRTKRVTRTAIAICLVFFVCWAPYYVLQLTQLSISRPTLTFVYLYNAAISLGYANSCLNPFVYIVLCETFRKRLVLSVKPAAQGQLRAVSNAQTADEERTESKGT
Chain of 168 GPCRs (Homo sapiens, UniProt P08913) (P08913 whole entry): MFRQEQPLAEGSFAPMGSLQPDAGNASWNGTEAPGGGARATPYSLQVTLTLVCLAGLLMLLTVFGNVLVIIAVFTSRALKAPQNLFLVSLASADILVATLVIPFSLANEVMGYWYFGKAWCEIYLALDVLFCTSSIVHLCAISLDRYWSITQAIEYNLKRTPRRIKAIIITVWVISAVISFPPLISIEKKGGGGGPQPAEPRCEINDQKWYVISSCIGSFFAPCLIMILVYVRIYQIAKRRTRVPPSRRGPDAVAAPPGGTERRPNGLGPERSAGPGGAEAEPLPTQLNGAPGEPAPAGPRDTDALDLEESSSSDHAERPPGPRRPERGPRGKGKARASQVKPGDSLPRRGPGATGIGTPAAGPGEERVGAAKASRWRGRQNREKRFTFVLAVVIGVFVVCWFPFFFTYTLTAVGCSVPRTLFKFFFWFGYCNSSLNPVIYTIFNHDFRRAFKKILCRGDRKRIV
Chain of 168 GPCRs (Homo sapiens, UniProt Q9H244) (Q9H244 whole entry): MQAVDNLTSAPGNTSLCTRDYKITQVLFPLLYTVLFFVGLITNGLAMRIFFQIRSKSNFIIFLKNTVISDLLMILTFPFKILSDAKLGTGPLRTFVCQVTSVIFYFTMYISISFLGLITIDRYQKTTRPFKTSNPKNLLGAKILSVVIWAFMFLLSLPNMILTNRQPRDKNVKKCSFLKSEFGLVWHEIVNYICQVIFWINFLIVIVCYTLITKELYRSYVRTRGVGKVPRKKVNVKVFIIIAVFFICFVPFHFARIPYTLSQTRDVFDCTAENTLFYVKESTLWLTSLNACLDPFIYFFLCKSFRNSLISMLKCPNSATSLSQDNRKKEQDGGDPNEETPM
Chain of 168 GPCRs (Homo sapiens, UniProt P30550) (P30550 whole entry): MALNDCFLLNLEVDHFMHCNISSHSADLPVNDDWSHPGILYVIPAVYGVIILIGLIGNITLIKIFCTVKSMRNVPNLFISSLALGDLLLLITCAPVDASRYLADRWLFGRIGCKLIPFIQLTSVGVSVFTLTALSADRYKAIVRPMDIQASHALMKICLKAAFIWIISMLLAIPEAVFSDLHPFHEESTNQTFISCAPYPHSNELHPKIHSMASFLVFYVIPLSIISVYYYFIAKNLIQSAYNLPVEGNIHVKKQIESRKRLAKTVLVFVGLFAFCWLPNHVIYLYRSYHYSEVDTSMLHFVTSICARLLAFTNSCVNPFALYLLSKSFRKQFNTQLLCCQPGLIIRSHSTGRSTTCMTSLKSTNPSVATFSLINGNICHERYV

CNC(C)C(=O)c1ccc2c(c1)OCO2 (stereo not drawn) [methylone, 3,4-methylenedioxy-N-methylcathinone]
activity at 10 µM (168 GPCRs [1]; Agonist mode, 10 uM): -1.8% | activity at 1 µM (168 GPCRs [1]; Agonist, 1 uM): -3.2% | activity at 1 µM (168 GPCRs [2]; 1 uM): 6% | activity at 10 µM (168 GPCRs [2]; 10 uM): 6% | activity at 1 µM (168 GPCRs [3]; 1 uM): -4% | activity at 10 µM (168 GPCRs [3]; 10 uM): -3% | activity at 1 µM (168 GPCRs [4]; 1 uM): 8.4% | activity at 10 µM (168 GPCRs [4]; 10 uM): 12.9% | activity at 10 µM (168 GPCRs [5]; P2RY12, Agonist mode, 10 uM): -2.5% | activity at 1 µM (168 GPCRs [5]; P2RY12, Agonist, 1 uM): -1.5% | activity at 1 µM (168 GPCRs [6]; 1 uM): -0.5% | activity at 10 µM (168 GPCRs [6]; 10 uM): 1.4% | activity at 10 µM (168 GPCRs [7]; DRD1, Agonist mode, 10 uM): -1.6% | activity at 1 µM (168 GPCRs [7]; DRD1, Agonist, 1 uM): -1.6% | activity at 10 µM (168 GPCRs [8]; TACR3, Agonist mode, 10 uM): 1.1% | activity at 1 µM (168 GPCRs [8]; TACR3, Agonist, 1 uM): 0.8% | activity at 1 µM (168 GPCRs [9]; 1 uM): -0.9% | activity at 10 µM (168 GPCRs [9]; 10 uM): 1% | activity at 10 µM (168 GPCRs [10]; Agonist mode, 10 uM): -1.1% | activity at 1 µM (168 GPCRs [10]; Agonist, 1 uM): -1.4% | activity at 10 µM (168 GPCRs [11]; CRHR2, Agonist mode, 10 uM): 0.9% | activity at 1 µM (168 GPCRs [11]; CRHR2, Agonist, 1 uM): 0.9% | activity at 10 µM (168 GPCRs [12]; CXCR1, Agonist mode, 10 uM): 0.1% | activity at 1 µM (168 GPCRs [12]; CXCR1, Agonist, 1 uM): -0.5% | activity at 10 µM (168 GPCRs [13]; SSTR1, Agonist mode, 10 uM): -7.4% | activity at 1 µM (168 GPCRs [13]; SSTR1, Agonist, 1 uM): -5.3% | activity at 10 µM (168 GPCRs [14]; CXCR4, Agonist mode, 10 uM): 7% | activity at 1 µM (168 GPCRs [14]; CXCR4, Agonist, 1 uM): -4% | activity at 10 µM (168 GPCRs [15]; P2RY2, Agonist mode, 10 uM): -2.7% | activity at 1 µM (168 GPCRs [15]; P2RY2, Agonist, 1 uM): -2.1% | activity at 10 µM (168 GPCRs [16]; Agonist mode, 10 uM): 0.2% | activity at 1 µM (168 GPCRs [16]; Agonist, 1 uM): -3.5% | activity at 10 µM (168 GPCRs [17]; MCHR1, Agonist mode, 10 uM): 3.1% | activity at 1 µM (168 GPCRs [17]; MCHR1, Agonist, 1 uM): 3.9% | activity at 1 µM (168 GPCRs [18]; CALCRL-RAMP1, read-out: % Activity): -2.6% | activity at 10 µM (168 GPCRs [18]; CALCRL-RAMP1): -0.2% | activity at 1 µM (168 GPCRs [18]; CALCRL-RAMP2): 0.1% | activity at 10 µM (168 GPCRs [18]; CALCRL-RAMP2): 2.8% | activity at 1 µM (168 GPCRs [18]; CALCRL-RAMP3, read-out: % Activity): -2.2% | activity at 10 µM (168 GPCRs [18]; CALCRL-RAMP3): 2.2% | activity at 1 µM (168 GPCRs [19]; 1 uM): -3.8% | activity at 10 µM (168 GPCRs [19]; 10 uM): -3.8% | activity at 10 µM (168 GPCRs [20]; Agonist mode, 10 uM): -0.1% | activity at 1 µM (168 GPCRs [20]; Agonist, 1 uM): 0% | activity at 1 µM (168 GPCRs [21]; 1 uM): -1% | activity at 10 µM (168 GPCRs [21]; 10 uM): 1.3% | activity at 1 µM (168 GPCRs [22]; 1 uM): -9.1% | activity at 10 µM (168 GPCRs [22]; 10 uM): 8.5%
